Measured values as given in patent US20120178147A1, “MICROBIAL CULTURES AND METHODS FOR ANAEROBIC BIOREMEDIATION” (priority 2009, published 2012).
Where “and” joins values, the source holds several entries; their conditions need not be identical. Equal values may be shown once. Entries after “also recorded” stand apart in the source; their conditions may differ.

What was measured:
BDI cultures = test: TCC and TCS exposure: TCE reductive dechlorination by Bio-Dechlor INOCULUM; assay type: cell-based; details: for TCE completely dechlorinated to ethene in BDI / TCE transformed to VC in BDI: 1.5 μM TCC or 35 μM TCS, by day 27
Protocol: (§1) Cultures. Two cultures were used in this study: 1) Bio-Dechlor INOCULUM, which was obtained from Dr. Frank Loffler's laboratory at Georgia Tech; 2) DehaloR̂2 culture, developed from a sediment microcosm from the Chesapeake Bay “sediment core-D” with three-times continuous transfers described in Example 1.
(§2) TCC and TCS Exposure. For the TCC and TCS test, 1 ml ATCC mixed vitamin solution (Catalog No. MD-VS), 0.25 ml 20 mg/L vitamin B12 solution and 1 ml 500 mM lactate solution were filtered with a 0.2 μm sterile filter and added to 92.5 ml sterile anaerobic media in 160 ml serum bottles, and then 5 ml of culture was transferred into this fresh media. Lactate served as electron donor and carbon source. Fifty μl TCE stock solutions ([…] in methanol) were injected into the media with 500-μl Hamilton air-tight syringe (Reno, Nev.), and the final TCE concentration was 35 μmol per serum bottle. Ten μl TCC or TCS stock solutions in methanol or pure methanol was injected with 10 μl Hamilton air-tight syringe (Reno, Nev.) into the serum bottle. Three concentration levels of TCC or TCS stock solutions were made and listed in Table 8 to make the three final concentration levels of TCC or TCS. The middle concentration level of TCC and TCS in cultures was set according to the solubility of TCC and TCS at 20° C. The highest concentration of TCC and TCS is 10 times the solubility of TCC and TCS at 20° C., and the lowest concentration of TCC and TCS is 10% the solubility of TCC and TCS at 20° C.
(§3) The total aqueous volume in 160-ml serum bottle was 100 ml. Four BDI and four DehaloR̂2 cultures were generated for each concentration of TCC or TCS, and three of them were used for TCE dechlorination analysis and the other one was used for DNA extractions and molecular analysis. The error bars in the figures are the standard deviations for three independent cultures under the same conditions.
(§4) All cultures were stored in the dark and incubated at 30° C.
(§5) Analytical Methods. The concentrations of TCE and their reductive-dechlorinating byproducts, 1,1-DCE, cis-DCE, trans-DCE, VC, and ethene were quantified by gas chromatography with a flame ionization detector (GC-FID).
(§6) 200 μl headspace gas samples were withdrawn from 160 ml serum bottle with 500 μl gas-tight syringes (Hamilton Company, Reno, Nev.) and analyzed by a Shimadzu GC-2010 (Columbia, Md.) with an Rt™-QSPLOT capillary column (30 m×0.32 mm×10 μm, Restek, Bellefonte, Pa.) and a flame ionization detector (FID). The initial oven temperature was 110° C. and was held constant for 5 min. Then the temperature was raised with a gradient of 10° C./min to 150° C., a second gradient at 20° C./min to 200° C., and a third gradient of 5° C./min to 220° C. At the end of this gradient, the oven temperature was held constant at 220° C. for 5 min. The temperature of FID and injector were 240° C. Ultra high purity helium was the carrier gas for the GC. Ultra high purity hydrogen and zero grade air were used for the FID.
(§7) Calibration curves for chlorinated compounds were determined based on the known mass of PCE, TCE, 1,1-DCE, cis-DCE and trans-DCE added to 160 ml serum bottles containing 100 ml of distilled-deionized water and equilibrated at 25° C. overnight. The contents were then analyzed using the Shimadzu GC-FID. Different volumes of 100 ppm and 1000 ppm VC and ethene gas were injected directly into GC using the 500 μl airtight syringe to make their calibration curves. The aqueous concentrations of PCE, TCE and their reaction products were calculated by using reported Henry's constants on the EPA website (Washington and Weaver, 2006)

DehaloR̂2 cultures = test: TCC and TCS exposure: TCE reductive dechlorination by DehaloR̂2 culture; assay type: cell-based; details: for TCE completely dechlorinated into ethene in the 22-day period in DehaloR̂2: 1.5 μM TCC (32 μmol TCE) or 35 μM TCS
Protocol: as §1, §2, §3
The TCC and TCS tests on DehaloR̂2 culture were only dosed with the highest and middle concentrations of TCC and TCS, which are 1.5 μM TCC, 0.15 μM TCC, 35 μM TCS and 3.5 μM TCS, respectively.
as §4, §5, §6, §7

[1] = at 25° C., pH 7; cited from earlier work
[2] = highest level: 1.5 μM TCC or 35 μM TCS
[3] = lowest level: 0.015 μM TCC or 0.35 μM TCS
[4] = middle level: 0.15 μM TCC or 3.5 μM TCS

SMILES: O=C(Nc1ccc(Cl)cc1)Nc1ccc(Cl)c(Cl)c1 [TCC, 3-(4-chlorophenyl)-1-(3,4-dichlorphenyl) urea]
- TCE completely dechlorinated to ethene in BDI (BDI cultures): 10%
- TCE transformed to VC in BDI (BDI cultures): 90%
- Maximum formation rate Ethene in BDI (BDI cultures; highest level: 1.5 μM TCC): 0.19 μmol vial^−1 day^−1
- Maximum formation rate VC in BDI (BDI cultures; [2]): 1.65 μmol vial^−1 day^−1
- Maximum formation rate cis-DCE in BDI (BDI cultures; [2]): 3.94 μmol vial^−1 day^−1
- Maximum utilization rate TCE in BDI (BDI cultures; [2]): 4.22 μmol vial^−1 day^−1
- Maximum utilization rate cis-DCE in BDI (BDI cultures; [2]): 1.29 μmol vial^−1 day^−1
- effect on TCE reductive dechlorination in BDI cultures (BDI cultures; [2]): significantly inhibited TCE reductive dechlorination
- Maximum formation rate Ethene in BDI (BDI cultures; [3]): 2.32 μmol vial^−1 day^−1
- Maximum formation rate VC in BDI (BDI cultures; [3]): 1.11 μmol vial^−1 day^−1
- Maximum formation rate cis-DCE in BDI (BDI cultures; [3]): 7.98 μmol vial^−1 day^−1
- Maximum utilization rate TCE in BDI (BDI cultures; [3]): 9.23 μmol vial^−1 day^−1
- Maximum utilization rate VC in BDI (BDI cultures; [3]): 1.35 μmol vial^−1 day^−1
- Maximum utilization rate cis-DCE in BDI (BDI cultures; [3]): 2.99 μmol vial^−1 day^−1
- effect on TCE reductive dechlorination in BDI cultures (BDI cultures; [3]): had no influence on TCE reductive dechlorination; also recorded: did not show any obvious effect
- Maximum formation rate Ethene in BDI (BDI cultures; [4]): 3.3 μmol vial^−1 day^−1
- Maximum formation rate VC in BDI (BDI cultures; [4]): 1.38 μmol vial^−1 day^−1
- Maximum formation rate cis-DCE in BDI (BDI cultures; [4]): 7.04 μmol vial^−1 day^−1
- Maximum utilization rate TCE in BDI (BDI cultures; [4]): 7.47 μmol vial^−1 day^−1
- Maximum utilization rate VC in BDI (BDI cultures; [4]): 0.33 μmol vial^−1 day^−1
- Maximum utilization rate cis-DCE in BDI (BDI cultures; [4]): 2.6 μmol vial^−1 day^−1
- effect on TCE reductive dechlorination in BDI cultures (BDI cultures; [4]): did not show any obvious effect
- time for complete TCE reductive dechlorination in DehaloR̂2 (DehaloR̂2 cultures; 0.15 μM TCC): approximately 22 days
- time for reductive dechlorination of 80% of 33 μmol TCE into ethene in DehaloR̂2 (DehaloR̂2 cultures; 0.15 μM TCC): 11 days
- time for reductive dechlorination of TCE to cis-DCE in DehaloR̂2 (DehaloR̂2 cultures; 1.5 μM TCC): about 4 days
- TCE completely dechlorinated into ethene in the 22-day period in DehaloR̂2 (DehaloR̂2 cultures): About 46%
- Maximum formation rate Ethene in DehaloR̂2 (SCD) (DehaloR̂2 cultures; highest level: 1.5 μM TCC): 1.08 μmol vial^−1 day^−1
- Maximum utilization rate VC in DehaloR̂2 (SCD) (DehaloR̂2 cultures; highest level: 1.5 μM TCC): 1.48 μmol vial^−1 day^−1
- Maximum utilization rate cis-DCE in DehaloR̂2 (SCD) (DehaloR̂2 cultures; highest level: 1.5 μM TCC): 9.55 μmol vial^−1 day^−1
- Maximum formation rate VC in DehaloR̂2 (SCD) (DehaloR̂2 cultures; [2]): 8.12 μmol vial^−1 day^−1
- Maximum formation rate cis-DCE in DehaloR̂2 (SCD) (DehaloR̂2 cultures; [2]): 12.83 μmol vial^−1 day^−1
- Maximum utilization rate TCE in DehaloR̂2 (SCD) (DehaloR̂2 cultures; [2]): 9.54 μmol vial^−1 day^−1
- effect on TCE reductive dechlorination in DehaloR̂2 cultures (DehaloR̂2 cultures; [2]): significantly inhibited TCE reductive dechlorination
- Maximum formation rate Ethene in DehaloR̂2 (SCD) (DehaloR̂2 cultures; [4]): 8.54 μmol vial^−1 day^−1
- Maximum formation rate VC in DehaloR̂2 (SCD) (DehaloR̂2 cultures; [4]): 6.72 μmol vial^−1 day^−1
- Maximum formation rate cis-DCE in DehaloR̂2 (SCD) (DehaloR̂2 cultures; [4]): 23.87 μmol vial^−1 day^−1
- Maximum utilization rate TCE in DehaloR̂2 (SCD) (DehaloR̂2 cultures; [4]): 20.45 μmol vial^−1 day^−1
- Maximum utilization rate VC in DehaloR̂2 (SCD) (DehaloR̂2 cultures; [4]): 6.01 μmol vial^−1 day^−1
- Maximum utilization rate cis-DCE in DehaloR̂2 (SCD) (DehaloR̂2 cultures; [4]): 6.40 μmol vial^−1 day^−1
- effect on TCE reductive dechlorination in DehaloR̂2 cultures (DehaloR̂2 cultures; [4]): slowed down the TCE reductive dechlorination process
- Partition Coefficient [1]: 4.9 Log Pow

SMILES: Oc1cc(Cl)ccc1Oc1ccc(Cl)cc1Cl [TCS, 5-chloro-2-[2,4-dichloro-phenoxy]-phenol]
- TCE completely dechlorinated to ethene in BDI (BDI cultures): no ethene was produced
- TCE transformed to VC in BDI (BDI cultures): 7%
- VC produced in BDI (BDI cultures; 35 μM TCS): 3.6 µmol
- TCE not dechlorinated in BDI (BDI cultures; 35 μM TCS, 27-day experiment): approximately 9%
- TCE transformed to cis-DCE in BDI (BDI cultures; 35 μM TCS, within 27 days): 84%
- Maximum formation rate VC in BDI (BDI cultures; [2]): 1.21 μmol vial^−1 day^−1
- Maximum formation rate cis-DCE in BDI (BDI cultures; [2]): 6.41 μmol vial^−1 day^−1
- Maximum utilization rate TCE in BDI (BDI cultures; [2]): 8.75 μmol vial^−1 day^−1
- Maximum utilization rate cis-DCE in BDI (BDI cultures; [2]): 0.11 μmol vial^−1 day^−1
- effect on TCE reductive dechlorination in BDI cultures (BDI cultures; [2]): significantly inhibited TCE reductive dechlorination
- Maximum formation rate Ethene in BDI (BDI cultures; [3]): 2.61 μmol vial^−1 day^−1
- Maximum formation rate VC in BDI (BDI cultures; [3]): 1.14 μmol vial^−1 day^−1
- Maximum formation rate cis-DCE in BDI (BDI cultures; [3]): 6.69 μmol vial^−1 day^−1
- Maximum utilization rate TCE in BDI (BDI cultures; [3]): 9.58 μmol vial^−1 day^−1
- Maximum utilization rate VC in BDI (BDI cultures; [3]): 1.14 μmol vial^−1 day^−1
- Maximum utilization rate cis-DCE in BDI (BDI cultures; [3]): 2.72 μmol vial^−1 day^−1
- effect on TCE reductive dechlorination in BDI cultures (BDI cultures; [3]): had no influence on TCE reductive dechlorination; also recorded: did not show any obvious effect
- Maximum formation rate Ethene in BDI (BDI cultures; [4]): 3.95 μmol vial^−1 day^−1
- Maximum formation rate VC in BDI (BDI cultures; [4]): 1.54 μmol vial^−1 day^−1
- Maximum formation rate cis-DCE in BDI (BDI cultures; [4]): 7.24 μmol vial^−1 day^−1
- Maximum utilization rate TCE in BDI (BDI cultures; [4]): 9.36 μmol vial^−1 day^−1
- Maximum utilization rate VC in BDI (BDI cultures; [4]): 0.62 μmol vial^−1 day^−1
- Maximum utilization rate cis-DCE in BDI (BDI cultures; [4]): 2.39 μmol vial^−1 day^−1 and 2.4 μmol vial^−1 day^−1
- effect on TCE reductive dechlorination in BDI cultures (BDI cultures; [4]): did not show any obvious effect
- TCE completely dechlorinated into ethene in the 22-day period in DehaloR̂2 (DehaloR̂2 cultures): no ethene was produced
- time for TCE reductive dechlorination to cis-DCE in DehaloR̂2 (DehaloR̂2 cultures; 3.5 μM TCS): about 4 days
- TCE completely dechlorinated into ethene at the 18th day in DehaloR̂2 (DehaloR̂2 cultures; 3.5 μM TCS, 34 μmol TCE): 79%
- TCE transformed into VC within 22 days in DehaloR̂2 (DehaloR̂2 cultures; 35 μM TCS): 1%
- Maximum formation rate VC in DehaloR̂2 (SCD) (DehaloR̂2 cultures; [2]): 0.11 μmol vial^−1 day^−1
- Maximum formation rate cis-DCE in DehaloR̂2 (SCD) (DehaloR̂2 cultures; [2]): 5.59 μmol vial^−1 day^−1
- Maximum utilization rate TCE in DehaloR̂2 (SCD) (DehaloR̂2 cultures; [2]): 5.90 μmol vial^−1 day^−1
- effect on TCE reductive dechlorination in DehaloR̂2 cultures (DehaloR̂2 cultures; [2]): significantly inhibited TCE reductive dechlorination
- Maximum formation rate Ethene in DehaloR̂2 (SCD) (DehaloR̂2 cultures; [4]): 3.11 μmol vial^−1 day^−1
- Maximum formation rate VC in DehaloR̂2 (SCD) (DehaloR̂2 cultures; [4]): 8.99 μmol vial^−1 day^−1
- Maximum formation rate cis-DCE in DehaloR̂2 (SCD) (DehaloR̂2 cultures; [4]): 8.79 μmol vial^−1 day^−1
- Maximum utilization rate TCE in DehaloR̂2 (SCD) (DehaloR̂2 cultures; [4]): 13.47 μmol vial^−1 day^−1
- Maximum utilization rate VC in DehaloR̂2 (SCD) (DehaloR̂2 cultures; [4]): 1.96 μmol vial^−1 day^−1
- Maximum utilization rate cis-DCE in DehaloR̂2 (SCD) (DehaloR̂2 cultures; [4]): 9.10 μmol vial^−1 day^−1
- effect on TCE reductive dechlorination in DehaloR̂2 cultures (DehaloR̂2 cultures; [4]): slowed down the TCE reductive dechlorination process
- Partition Coefficient [1]: 4.8 Log Pow
